Test results as given in US9352030B2, “Mycobacterium antigenic composition” (priority 2010, dated 2016).

Experiments:
[1] = tested on: chicken Red Blood cells (RBC); test: QS21 lytic activity haemolysis assay (limit test); type: cell-based; details: RBC 30 min RT, OD at 540 nm
Procedure: QS21 lytic activity was measured by a haemolysis assay using chicken Red Blood cells (RBC). RBC were centrifuged at 550 g at 4° C. Supernatant was discarded. The pellet was carefully resuspended in PBS buffer to reach the initial volume and the same operation was repeated until supernatant was no longer red (generally 3 times). The pellet was stored at 4° C. for 3 to 4 days maximum if not used directly (and washed again the day it is used) or was diluted around 10 times in buffer if used the same day.
A QS21 dose range curve was prepared in ASA buffer (in salt or in sorbitol buffer following the ASA sample tested) extemporaneously and the adjuvant samples (containing a 50 ug or 90 ug equivalent of QS21 meaning the equivalent of 500 ul or 900 ul ASA) were prepared. Final volume was adjusted to 900 ul in standards and samples with adequate buffer (containing or not sorbitol as a function of the buffer of the sample tested). Due to its opalescence, ASA interferes with optical density (OD). ASA “blanks” were thus prepared and their OD was subtracted from the OD of ASA tested samples. Those blanks corresponded to the same ASA volume as the volume tested in samples, but adjusted to 1 ml with buffer. No RBC were added to these blanks. Standards and samples were then incubated with RBC (100 ul of diluted RBC added to 900 ul of standards and samples) for 30 minutes at room temperature (RT). Samples were then centrifuged 5 minutes at 900 g. Optical density at 540 nm was measured after centrifugation.
Determination of lytic activity was carried out by a limit test.
1. Limit of detection (LOD) was defined as the lowest concentration of QS21 leading to an OD: • Higher than the base level (OD>0.1) • Around three times higher than OD's buffer (the “0 ug” QS21) • In the ascendant part of the curve • Determined for each test.
2. QS21 lytic activity was held to be positive in the adjuvant samples if the OD for the adjuvant sample was greater than the ODLOD).

[2] = Conductivity determination (Malvern Zetasizer Nano); type: physicochemical
Procedure: A range of standards having sodium chloride concentrations of 0, 75, 100, 150, 250 and 300 mM were prepared from a stock solution of 1500 mM sodium chloride by dilution in water for injection.
Immunogenic compositions were prepared using M72 with two N-terminal His residues according to the procedures provided in Example 9. To investigate the contribution from the antigen itself and any residual materials in the purified bulk, placebo lyophilisation cakes were also prepared by excluding the antigen component.
Using a Malvern Zetasizer Nano and 1.5 ml of each sample in folded capillary cells, a voltage of 30 to 150 V (determined automatically by the instrument) was applied and the conductivity determined.

[3] = type: physicochemical; details: pH 7.5 or 8.5; sodium chloride 150 mM or greater
[4] = tested on: M72-specific rabbit polyclonal antibody and M72(Mtb39)-specific mouse monoclonal antibody; test: M72 antigenicity sandwich ELISA, varied pH and NaCl (Example 10); type: binding; details: pH 7.5 or 8.5; sodium chloride 150 mM or greater
[5] = type: physicochemical; details: 100 ug/ml; pH 6.1, 7.5, 8.5; 0, 150, 450 mM NaCl; 24 hours at 4° C. or 25° C.
[6] = type: physicochemical; details: 100 ug/ml; pH 6.1, 7.5, 8.5; 0, 150, 450 mM NaCl; 24 hours at 4° C. or 25° C.; remark: listed apart in the source
[7] = Nephlometry of Rv1196 compositions with varied pH and NaCl after storage; type: physicochemical; details: 100 ug/ml; pH 6.1, 7.5, 8.5; 0, 150, 450 mM NaCl; 24 hours at 4° C. or 25° C.
Procedure: Rv1196 protein (SEQ ID No: 1) was obtained from Corixa Corporation and was diluted to a concentration of 100 ug/ml in three different buffers (10 mM phosphate buffer at pH 6.1, 20 mM Tris buffer at pH 7.5 and 20 mM Tris buffer at pH 8.5) containing final sodium chloride concentrations of 0, 150 and 450 mM.
Samples were stored for 24 hours at 4° C. or 25° C. before analysis.
Nephlometry was performed using a Nepheloskan® Ascent, available from Thermo Fischer Scientific. Analysis was performed in UV transparent Costar® micro-plates available from Corning Inc (USA).

[8] = DLS of Rv1196 compositions with varied pH and NaCl after storage; type: physicochemical; details: 100 ug/ml; pH 8.5

QS21
OD ([1]; 0.5 ug QS21 standard): 0.052 | OD ([1]; 0.6 ug QS21 standard): 0.073 | OD ([1]; 0.7 ug QS21 standard): 0.091 | OD ([1]; 0.8 ug QS21 standard): 0.096 | OD ([1]; 0.9 ug QS21 standard): 0.12

[Cl-].[Na+] [sodium chloride]
Conductivity ([2]; 75 mM sodium chloride standard in water for injection): 8.2 mS/cm | Conductivity ([2]; 300 mM sodium chloride standard in water for injection): 30.0 mS/cm

B1: M72: fusion protein antigen comprising Rv1196, M72 with two N-terminal His residues, SEQ ID No: 7 (protein)
chain: MHHTAASDNFQLSQGGQGFAIPIGQAMAIAGQIRSGGGSPTVHIGPTAFLGLGVVDNNGNGARVQRVVGSAPAASLGISTGDVITAVDGAPINSATAMADALNGHHPGDVISVTWQTKSGGTRTGNVTLAEGPPAEFMVDFGALPPEINSARMYAGPGSASLVAAAQMWDSVASDLFSAASAFQSVVWGLTVGSWIGSSAGLMVAAASPYVAWMSVTAGQAELTAAQVRVAAAAYETAYGLTVPPPVIAENRAELMILIATNLLGQNTPAIAVNEAEYGEMWAQDAAAMFGYAAATATATATLLPFEEAPEMTSAGGLLEQAAAVEEASDTAAANQLMNNVPQALQQLAQPTQGTTPSSKLGGLWKTVSPHRSPISNMVSMANNHMSMTNSGVSMTNTLSSMLKGFAPAAAAQAVQTAAQNGVRAMSSLGSSLGSSGLGGGVAANLGRAASVGSLSVPQAWAAANQAVTPAARALPLTSLTSAAERGPGQMLGGLPVGQMGARAGGGLSGVLRVPPRPYVMPHSPAAGDIAPPALSQDRFADFPALPLDPSAMVAQVGPQVVNINTKLGYNNAVGAGTGIVIDPNGVVLTNNHVIAGATDINAFSVGSGQTYGVDVVGYDRTQDVAVLQLRGAGGLPSAAIGGGVAVGEPVVAMGNSGGQGGTPRAVPGRVVALGQTVQASDSLTGAEETLNGLIQFDAAIQPGDAGGPVVNGLGQVVGMNTAAS
modifications: M72 fusion with 2 additional his residues
change in antigen size [3]: clear increase in antigen size | change in antigenicity [4]: reduction in antigenicity

B2: Mtb72f: fusion protein antigen, Mtb72f with 6 his residues, SEQ ID No: 11 (protein)
chain: MHHHHHHTAASDNFQLSQGGQGFAIPIGQAMAIAGQIRSGGGSPTVHIGPTAFLGLGVVDNNGNGARVQRVVGSAPAASLGISTGDVITAVDGAPINSATAMADALNGHHPGDVISVTWQTKSGGTRTGNVTLAEGPPAEFMVDFGALPPEINSARMYAGPGSASLVAAAQMWDSVASDLFSAASAFQSVVWGLTVGSWIGSSAGLMVAAASPYVAWMSVTAGQAELTAAQVRVAAAAYETAYGLTVPPPVIAENRAELMILIATNLLGQNTPAIAVNEAEYGEMWAQDAAAMFGYAAATATATATLLPFEEAPEMTSAGGLLEQAAAVEEASDTAAANQLMNNVPQALQQLAQPTQGTTPSSKLGGLWKTVSPHRSPISNMVSMANNHMSMTNSGVSMTNTLSSMLKGFAPAAAAQAVQTAAQNGVRAMSSLGSSLGSSGLGGGVAANLGRAASVGSLSVPQAWAAANQAVTPAARALPLTSLTSAAERGPGQMLGGLPVGQMGARAGGGLSGVLRVPPRPYVMPHSPAAGDIAPPALSQDRFADFPALPLDPSAMVAQVGPQVVNINTKLGYNNAVGAGTGIVIDPNGVVLTNNHVIAGATDINAFSVGSGQTYGVDVVGYDRTQDVAVLQLRGAGGLPSAAIGGGVAVGEPVVAMGNSGGQGGTPRAVPGRVVALGQTVQASDSLTGAEETLNGLIQFDAAIQPGDSGGPVVNGLGQVVGMNTAAS
modifications: Mtb72f fusion with 6 additional his residues
nephlometry trend with salt concentration and pH [5]: sensitive to salt concentration and pH | DLS size trend with salt concentration and pH [6]: sensitive to salt concentration and pH

B3: Rv1196: Rv1196 protein (SEQ ID No: 1) from Mycobacterium tuberculosis H37Rv, obtained from Corixa Corporation (protein)
chain: MVDFGALPPEINSARMYAGPGSASLVAAAQMWDSVASDLFSAASAFQSVVWGLTVGSWIGSSAGLMVAAASPYVAWMSVTAGQAELTAAQVRVAAAAYETAYGLTVPPPVIAENRAELMILIATNLLGQNTPAIAVNEAEYGEMWAQDAAAMFGYAAATATATATLLPFEEAPEMTSAGGLLEQAAAVEEASDTAAANQLMNNVPQALQQLAQPTQGTTPSSKLGGLWKTVSPHRSPISNMVSMANNHMSMTNSGVSMTNTLSSMLKGFAPAAAAQAVQTAAQNGVRAMSSLGSSLGSSGLGGGVAANLGRAASVGSLSVPQAWAAANQAVTPAARALPLTSLTSAAERGPGQMLGGLPVGQMGARAGGGLSGVLRVPPRPYVMPHSPAAG
modifications: Mycobacterium tuberculosis H37Rv
clarity by nephlometry with increasing salt concentration [7]: sensitive to salt concentration | particle size by DLS [8]: concentration of sodium chloride impacts the measured particle size
